Results from patent EP0612472A1, “Herbicidal combinations comprising triazole derivatives (III)” (MONSANTO EUROPE S.A., priority 1993, dated 1994).

Test system: Galium aparine
Assay: field experiment, tank mix, Belgium
Type: in vivo
From the text: A field experiment has been carried out during winter time (November 1990) in Belgium.
Application was made at 250 l/ha using standard spraying equipment (Backpack sprayer; Nozzles XR 11003). Randomised block design with 3 replicates was used. Unit plot size was 2 X 6m². The soil surface was moist. Total ground cover: 20% crop, 10% weeds and 70% bare ground.
The plant species tested and corresponding true leave stage are:
The herbicides tested are the herbicide A as described in Example 1 in tank mix with another phytohormone type of herbicide, that is mecoprop. 0.2% surfactant (Tween® 20) has been added to the tank.
The results in table 2 hereafter are presented as average values of three replications.

Q: Which “control, GALAP 120 DAT” value (RATE 1000 g a.i/ha) does the source give for Cc1cc(Cl)ccc1OC(C)C(=O)O (centres unmarked) [mecoprop] here?
A: The value was 73.3%.

Q: What about the “control, GALAP 120 DAT” value (RATE 1200 g a.i/ha) of the same compound?
A: Its value is 66.7%.
